In the assay the target is T1, human mGlu2 receptor (Homo sapiens, UniProt Q14416).
T1 construct: expressed in transfected cells; host or cells: HEK293
T1 sequence (Q14416 19-872): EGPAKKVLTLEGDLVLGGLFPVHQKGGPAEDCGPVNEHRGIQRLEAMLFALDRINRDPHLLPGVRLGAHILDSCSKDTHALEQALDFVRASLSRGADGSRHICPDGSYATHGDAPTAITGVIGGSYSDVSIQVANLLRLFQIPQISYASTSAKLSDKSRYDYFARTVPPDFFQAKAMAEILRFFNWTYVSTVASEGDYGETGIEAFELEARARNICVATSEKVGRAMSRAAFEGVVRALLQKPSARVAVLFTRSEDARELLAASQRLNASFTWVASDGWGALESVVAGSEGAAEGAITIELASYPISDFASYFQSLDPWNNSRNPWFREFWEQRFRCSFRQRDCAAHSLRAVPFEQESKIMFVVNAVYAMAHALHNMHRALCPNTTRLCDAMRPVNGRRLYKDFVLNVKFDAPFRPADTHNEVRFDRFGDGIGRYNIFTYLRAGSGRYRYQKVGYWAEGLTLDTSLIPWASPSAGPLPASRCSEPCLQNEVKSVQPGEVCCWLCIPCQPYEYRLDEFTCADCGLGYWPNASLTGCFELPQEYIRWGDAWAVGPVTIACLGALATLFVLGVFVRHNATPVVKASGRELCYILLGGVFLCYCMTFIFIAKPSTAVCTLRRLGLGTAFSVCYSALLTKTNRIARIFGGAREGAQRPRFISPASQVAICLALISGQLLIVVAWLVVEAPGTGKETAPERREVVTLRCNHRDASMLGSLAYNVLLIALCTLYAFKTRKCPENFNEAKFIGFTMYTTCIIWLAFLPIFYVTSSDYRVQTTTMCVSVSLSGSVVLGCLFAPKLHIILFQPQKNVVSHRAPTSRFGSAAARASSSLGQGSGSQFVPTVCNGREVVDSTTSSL
The assay is described as follows: FLIPR intracellular Ca2+ assay, potentiation of glutamate response in HEK293 clone expressing mGlu2 receptor, rGLAST and Galpha16. The assay is classed as cell-based. Conditions: 1 μM glutamate added ten minutes after test compound, HEK293 cells with human mGlu2, rGLAST, Galpha16, read-out: EC50 values of potentiation effect to glutamate. The method in brief: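 HEK293 cells stably expressing human mGlu2, rat GLAST and Gα16 were loaded with 2 µM Fluo-4 AM and intracellular Ca2+ read by FLIPR. Compound added alone (agonism), then with submaximal glutamate (e.g. 1 µM; potentiation). Background-subtracted peaks normalized to 100 µM glutamate response; EC50 from four-parameter fit.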
As for `CCCC(=O)c1ccc(NCc2n[nH]cc2-c2ccc(OC)cc2)cc1` [Example 513, 1-(4-{[4-(4-Methoxy-phenyl)-1H-pyrazol-3-ylmethyl]-amino}-phenyl)-butan-1-one], the EC50 was less than 1000 nM.

Regarding `CCCC(=O)c1cccc(NCc2n[nH]cc2-c2ccc(OC)cc2)c1` [Example 514, 1-(3-{[4-(4-Methoxy-phenyl)-1H-pyrazol-3-ylmethyl]-amino}-phenyl)-butan-1-one], the EC50 lay in the range of 1000 to 10000 nM.

For `CCCC(=O)c1cccc(NCc2n[nH]cc2-c2ccc(CC)cc2)c1` [Example 515, 1-(3-{[4-(4-Ethyl-phenyl)-1H-pyrazol-3-ylmethyl]-amino}-phenyl)-butan-1-one], the EC50 is 1000 to 10000 nM.

Regarding `CCCC(=O)c1ccc(NCc2n[nH]cc2-c2ccc(CC)cc2)cc1` [Example 516, 1-(4-{[4-(4-Ethyl-phenyl)-1H-pyrazol-3-ylmethyl]-amino}-phenyl)-butan-1-one], the EC50 is less than 1000 nM.

On to `CCCC(=O)c1ccc(NCc2n[nH]cc2-c2ccc(C(F)(F)F)cc2)cc1` [Example 517, 1-(4-{[4-(4-Trifluoromethyl-phenyl)-1H-pyrazol-3-ylmethyl]-amino}-phenyl)-butan-1-one], for which the EC50 was less than 1000 nM.

Turning to `CCCC(=O)c1ccc(NCc2n[nH]cc2-c2ccc(Cl)cc2)cc1` [Example 518, 1-(4-{[4-(4-Chloro-phenyl)-1H-pyrazol-3-ylmethyl]-amino}-phenyl)-butan-1-one], the EC50 fell in the range of 1000 to 10000 nM.

Take `CCCC(=O)c1ccc(NCc2n[nH]nc2-c2ccccc2)cc1` [Example 519]: the EC50 was in the range of 1000 to 10000 nM.

Turning to `CCCC(=O)c1ccc(OCc2n[nH]cc2-c2ccc(OC)cc2)cc1` [Example 520, 1-{4-[4-(4-Methoxy-phenyl)-1H-pyrazol-3-ylmethoxy]-phenyl}-butan-1-one], the EC50 is less than 1000 nM.

On to `CCCC(=O)c1ccc(OCc2n[nH]cc2-c2ccc(CC)cc2)cc1` [Example 521, 1-{4-[4-(4-Ethyl-phenyl)-1H-pyrazol-3-ylmethoxy]-phenyl}-butan-1-one], for which the EC50 was less than 1000 nM.

Consider `CCCC(=O)c1ccc(NCc2n[nH]cc2Br)cc1` [Example 522], for which the EC50 is 1000 to 10000 nM.

Turning to `CCCC(=O)c1ccc(NCc2c[nH]cc2-c2ccccc2)cc1` [Example 523, 1-{4-[(4-Phenyl-1H-pyrrol-3-ylmethyl)-amino]-phenyl}-butan-1-one], the EC50 lay in the range of 1000 to 10000 nM.

As to `CCCC(=O)c1ccc(NCc2ccncc2-c2ccccc2)cc1` [Example 524, 1-{4-[(3-Phenyl-pyridin-4-ylmethyl)-amino]-phenyl}-butan-1-one], the EC50 fell in the range of 1000 to 10000 nM.

In the case of `CCCC(=O)c1ccc(NCc2cnccc2-c2ccccc2)cc1` [Example 525, 1-{4-[(4-Phenyl-pyridin-3-ylmethyl)-amino]-phenyl}-butan-1-one], the EC50 is less than 1000 nM.

Take `CCCC(=O)c1ccc(NCc2cccnc2-c2ccccc2)cc1` [Example 526, 1-{4-[(2-Phenyl-pyridin-3-ylmethyl)-amino]-phenyl}-butan-1-one]: the concentration for a half-maximal effect (EC50) lay within 1000 to 10000 nM.

On to `CCCC(=O)c1ccc(NCc2cnn3ccccc23)cc1` [Example 529, 1-{4-[(Pyrazolo[1,5-a]pyridin-3-ylmethyl)-amino]-phenyl}-butan-1-one], for which the EC50 was in the range of 1000 to 10000 nM.

`CCCN1Cc2cc(OCc3c[nH]nc3-c3ccc(C(F)(F)F)cc3)ccc2C1=O` [Example 531, 2-Propyl-5-[3-(4-trifluoromethyl-phenyl)-1H-pyrazol-4-ylmethoxy]-2,3-dihydro-isoindol-1-one]: the EC50 was less than 1000 nM.

Take `CCCN1Cc2cc(OCc3c[nH]nc3-c3cccc(C(F)(F)F)c3)ccc2C1=O` [Example 532, 2-Propyl-5-[3-(3-trifluoromethyl-phenyl)-1H-pyrazol-4-ylmethoxy]-2,3-dihydro-isoindol-1-one]: the EC50 is less than 1000 nM.

As for `CCCN1Cc2cc(OCc3c[nH]nc3-c3ccc(F)cc3)ccc2C1=O` [Example 533, 5-[3-(4-Fluorophenyl)-1H-pyrazol-4-ylmethoxy]-2-propyl-2,3-dihydro-isoindol-1-one], the EC50 was less than 1000 nM.

What is called EC50 is the concentration that produces a half-maximal response.

Values taken from patent publication US9242933B2 (AbbVie Deutschland GmbH & Co. KG, priority 2007, dated 2016).
